This is an account of results in US6828139B2, “Production of replicative hepatitis C virus” (priority 2000, dated 2004).

The assay concerns HCV (−) RNA synthesis. The assay can be described thus: HCV (−) strand RNA synthesis in the inducible HCV replication system, RNase protection assay. Type of assay: cell-based, hepatitis C virus (genotype 1a, strain H77) in CV-1 cells. Set-up: inhibitory effect on HCV (−) RNA synthesis: dose or concentration left out as unconfirmed. As to conditions: for results on HCV (−) RNA synthesis with changed time of addition: drug given 0 and 12 hours before vTF7-3 infection, compared with 20 hours.

Structures are written as SMILES. Where a name gives a salt, the structure may show the parent alone.

Regarding `NC(=O)c1ncn([C@@H]2O[C@H](CO)[C@@H](O)[C@H]2O)n1` [ribavirin], the “results on HCV (−) RNA synthesis with changed time of addition” value is “unchanged”. Besides, under “ribavirin, added 20 hours prior to vTF7-3”, the “inhibitory effect on HCV (−) RNA synthesis” value is listed as “No inhibitory effect”.
On to `NC12CC3CC(CC(C3)C1)C2` [amantadine, Amantadine-HCl], for which the “results on HCV (−) RNA synthesis with changed time of addition” value is “unchanged”. In addition, the “activity against HCV (−) strand synthesis” value (amantadine 1-100 μg/well, added 20 hours prior to vTF7-3 infection) is recorded as “no activity”.
